Test results reported in US9475816B2, “Substituted-1,4-dihydropyrazolo[4,3-b]indoles” (TAKEDA PHARMACEUTICAL COMPANY LIMITED, priority 2012, dated 2016).

Key:
human MetAP2 enzyme [1] = target: T1, human MetAP2 enzyme (Homo sapiens, UniProt P50579); assay: MetAP2 enzyme assay, MetAP2 enzyme complexed with cobalt ions; settings: MetAP2 Co pIC50, 10 μM CoCl2; -log(IC50), IC50 molar
Experimental: (§1) DNA encoding the full-length sequence of human MetAP2 enzyme is amplified by PCR and cloned into a pFastBac expression vector (Invitrogen). Recombinant baculovirus incorporating the MetAP2 construct is generated by transposition using the Bac-to-Bac system (Invitrogen). The expression of recombinant protein is carried out by infection of Spodoptera frugiperda Sf9 cells (Invitrogen) in 5L Wave Bioreactors (Wave Biotech). Recombinant protein is isolated from cellular extracts by binding to an SP Hitrap Fast Flow or SP Sepharose (Sigma) column, and the protein is eluted using a NaCl gradient. Partially purified extracts of MetAP2 are further purified by an AKTA FPLC over a Superdex-200 column (GE). The purity of MetAP2 protein is determined on denaturing SDS-PAGE gel.
(§2) The results for each well are expressed as percent inhibition and calculated using the equation:

human MetAP2 enzyme [2] = target: T1, human MetAP2 enzyme; assay: MetAP2 enzyme assay, MetAP2 enzyme complexed with manganese ions; settings: MetAP2 Mn pIC50, 10 μM MnCl2; -log(IC50), IC50 molar
Experimental: as §1, §2

[3] = mice; cited from earlier work
angiogenesis = settings: cited from earlier work
[4] = genetically and diet-induced obese mice; cited from earlier work

T1 sequence (P50579 whole entry): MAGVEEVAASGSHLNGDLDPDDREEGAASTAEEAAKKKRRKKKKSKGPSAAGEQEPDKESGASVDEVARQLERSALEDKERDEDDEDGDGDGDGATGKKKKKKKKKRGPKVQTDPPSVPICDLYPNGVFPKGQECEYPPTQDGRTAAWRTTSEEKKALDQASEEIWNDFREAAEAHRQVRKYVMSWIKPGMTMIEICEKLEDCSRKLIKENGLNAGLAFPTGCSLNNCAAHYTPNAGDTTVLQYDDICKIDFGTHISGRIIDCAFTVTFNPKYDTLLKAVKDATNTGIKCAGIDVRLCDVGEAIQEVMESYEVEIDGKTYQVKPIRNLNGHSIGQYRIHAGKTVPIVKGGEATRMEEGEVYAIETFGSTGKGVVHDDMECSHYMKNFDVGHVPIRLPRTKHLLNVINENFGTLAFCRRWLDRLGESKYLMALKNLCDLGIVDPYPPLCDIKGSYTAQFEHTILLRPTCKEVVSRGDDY

| IC50 (human MetAP2 enzyme [1]) [nM] | IC50 (human MetAP2 enzyme [2]) [nM] | Compound | effect on diet-induced obesity [3] | angiogenesis (angiogenesis) | food intake, body weight, fat mass, size of adipocytes [4] |
| --- | --- | --- | --- | --- | --- |
| 20 | 10 | CNC(=O)c1ccc(-n2c3ccc(F)cc3c3[nH]ncc32)c(C)n1 [Example 119, 5-(7-Fluoropyrazolo[4,3-b]indol-4(1H)-yl)-N,6-dimethylpicolinamide] |  |  |  |
| 15.8 | 15.8 | Cc1nc(C(=O)N(C)CCO)ccc1-n1c2ccc(F)cc2c2[nH]ncc21 [Example 120, 5-(7-Fluoropyrazolo[4,3-b]indol-4(1H)-yl)-N-(2-hydroxyethyl)-N,6-dimethylpicolinamide] |  |  |  |
| 20 | 15.8 | Cc1nc(C(=O)N(C)CC#N)ccc1-n1c2ccc(F)cc2c2[nH]ncc21 [Example 121, N-(Cyanomethyl)-5-(7-fluoropyrazolo[4,3-b]indol-4(1H)-yl)-N,6-dimethylpicolinamide] |  |  |  |
| 7.94 | 7.94 | Cc1nc(C(=O)NCCC#N)ccc1-n1c2ccc(F)cc2c2[nH]ncc21 [Example 122, N-(2-Cyanoethyl)-5-(7-fluoropyrazolo[4,3-b]indol-4(1H)-yl)-6-methylpicolinamide] |  |  |  |
| 7.94 | 6.31 | Cc1nc(C(=O)NC[C@@H](C)O)ccc1-n1c2ccc(F)cc2c2[nH]ncc21 [Example 123, 5-(7-Fluoropyrazolo[4,3-b]indol-4(1H)-yl)-N—((R)-2-hydroxypropyl)-6-methylpicolinamide] |  |  |  |
| 10 | 12.6 | Cc1nc(C(=O)NCC(N)=O)ccc1-n1c2ccc(F)cc2c2[nH]ncc21 [Example 124, N-(2-Amino-2-oxoethyl)-5-(7-fluoropyrazolo[4,3-b]indol-4(1H)-yl)-6-methylpicolinamide] |  |  |  |
| 12.6 | 10 | Cc1nc(C(=O)N2CC(C#N)C2)ccc1-n1c2ccc(F)cc2c2[nH]ncc21 [Example 125, 1-(5-(7-Fluoropyrazolo[4,3-b]indol-4(1H)-yl)-6-methylpicolinoyl)azetidine-3-carbonitrile] |  |  |  |
| 10 | 10 | Cc1nc(C(=O)NC[C@H](C)O)ccc1-n1c2ccc(F)cc2c2[nH]ncc21 [Example 126, 5-(7-Fluoropyrazolo[4,3-b]indol-4(1H)-yl)-N-((2S)-2-hydroxypropyl)-6-methylpicolinamide] |  |  |  |
| 7.94 | 15.8 | Cc1nc(N2CC(O)C2)ncc1-n1c2ccc(F)cc2c2[nH]ncc21 [Example 127, 1-(5-(7-Fluoropyrazolo[4,3-b]indol-4(1H)-yl)-4-methylpyrimidin-2-yl)azetidin-3-ol] |  |  |  |
| 79.4 | 63.1 | Cc1nc2[nH]cnc2cc1-n1c2cc(Cl)ccc2c2[nH]ncc21 [Example 128, 6-Chloro-4-(5-methyl-3H-imidazo[4,5-b]pyridin-6-yl)-1,4-dihydropyrazolo[4,3-b]indole] |  |  |  |
| 25.1 | 50.1 | Cc1nc2[nH]cnc2cc1-n1c2cc(Cl)c(F)cc2c2[nH]ncc21 [Example 129, 6-Chloro-7-fluoro-4-(5-methyl-3H-imidazo[4,5-b]pyridin-6-yl)-1,4-dihydropyrazolo[4,3-b]indole] |  |  |  |
| 10 | 12.6 | Cc1nc2[nH]cnc2cc1-n1c2cc(F)c(F)cc2c2[nH]ncc21 [Example 130, 6,7-Difluoro-4-(5-methyl-3H-imidazo[4,5-b]pyridin-6-yl)-1,4-dihydropyrazolo[4,3-b]indole] |  |  |  |
| 12.6 | 7.94 | Cc1cc2c(cc1F)c1[nH]ncc1n2-c1cc2[nH]cnc2nc1C [Example 131, 7-Fluoro-6-methyl-4-(5-methyl-1H-imidazo[4,5-b]pyridin-6-yl)-1,4-dihydropyrazolo[4,3-b]indole] |  |  |  |
| 50.1 | 50.1 | CC(c1ccccc1)n1c2ccc(F)cc2c2[nH]ncc21 (stereo not shown) [Example 132, 7-Fluoro-4-(1-phenylethyl)-1,4-dihydropyrazolo[4,3-b]indole] |  |  |  |
| 10 | 6.31 | Cc1nc(CCS(C)(=O)=O)ccc1-n1c2ccc(F)cc2c2[nH]ncc21 [Example 133, 7-Fluoro-4-(2-methyl-6-(2-(methylsulfonyl)ethyl)pyridin-3-yl)-1,4-dihydropyrazolo[4,3-b]indole] |  |  |  |
| 15.8 | 6.31 | OCc1nn(C(F)F)cc1-n1c2ccc(F)cc2c2[nH]ncc21 [Example 134, (1-(Difluoromethyl)-4-(7-fluoropyrazolo[4,3-b]indol-4(1H)-yl)-1H-pyrazol-3-yl)methanol] |  |  |  |
| 5.01 | 5.01 | Cc1nc(N2C[C@H]3C[C@H]3[C@@H]2C(N)=O)ncc1-n1c2ccc(F)cc2c2[nH]ncc21 [Example 135, (1R,2R,5S)-3-(5-(7-Fluoropyrazolo[4,3-b]indol-4(1H)-yl)-4-methylpyrimidin-2-yl)-3-azabicyclo[3.1.0]hexane-2-carboxamide] |  |  |  |
| 5.01 | 5.01 | Cc1nc(N2C[C@H]3C[C@H]3[C@H]2C(N)=O)ncc1-n1c2ccc(F)cc2c2[nH]ncc21 [Example 136, (1R,2S,5S)-3-(5-(7-Fluoropyrazolo[4,3-b]indol-4(1H)-yl)-4-methylpyrimidin-2-yl)-3-azabicyclo[3.1.0]hexane-2-carboxamide] |  |  |  |
| 10 | 6.31 | Cc1nc(N2CC[C@H](S(C)(=O)=O)C2)ncc1-n1c2ccc(F)cc2c2[nH]ncc21 [Example 137, 7-Fluoro-4-(4-methyl-2-((S)-3-(methylsulfonyl)pyrrolidin-1-yl)pyrimidin-5-yl)-1,4-dihydropyrazolo[4,3-b]indole] |  |  |  |
| 10 | 5.01 | Cn1cc(-n2c3ccc(F)cc3c3[nH]ncc32)c(CO)n1 [Example 138, (4-(7-Fluoropyrazolo[4,3-b]indol-4(1H)-yl)-1-methyl-1H-pyrazol-3-yl)methanol] |  |  |  |
|  |  | CO[C@@H]1[C@H](OC(=O)/C=C/C=C/C=C/C=C/C(=O)O)CC[C@]2(CO2)[C@H]1[C@@]1(C)O[C@@H]1CC=C(C)C [fumagillin] | impair diet-induced obesity | inhibit angiogenesis |  |
|  |  | beloranib hemioxalate [CKD-732] |  |  | decrease food intake, body weight, fat mass, and the size of adipocytes |
